Experimental data: US20160368919A1, “NOVEL PYRIDINE PYRAZINONES AS BET-FAMILY BROMODOMAIN INHIBITORS” (Pfizer Inc., priority 2015, published 2016)

Assays:
Assay type in all cases: cell-based
[1] = test system: C4-2AR-F876L cells, AR(+); experiment: CRPC cell proliferation assay (CellTiter-Glo), C4-2AR-F876L; conditions: CTG at 96h
Procedure: (§1) Castrate-Resistant Prostate Cancer (CRPC) Cell Proliferation Assay • Cells were seeded into 96-well plates at 2,000-10,000 cells/well in 100 uL medium. Four AR(+) cell lines (LnCaP, C4-2 (parental), C4-2AR-WT and C4-2AR—F876L) and one AR(−) cell line (DU-145) were studied. Compound treated cells were analyzed for cell density at 96h, using CellTiter-Glo® (CTG) reagent (Promega).

[2] = test system: C4-2 (parental) cells, AR(+); experiment: CRPC cell proliferation assay (CellTiter-Glo), C4-2; conditions: CTG at 96h
Procedure: as §1

[3] = test system: LnCaP cells, AR(+); experiment: CRPC cell proliferation assay (CellTiter-Glo), LnCaP; conditions: CTG at 96h
Procedure: as §1

[4] = test system: DU-145 cells, AR(−); experiment: CRPC cell proliferation assay (CellTiter-Glo), DU-145; conditions: CTG at 96h
Procedure: as §1

[5] = test system: C4-2AR-WT cells, AR(+); experiment: CRPC cell proliferation assay (CellTiter-Glo), C4-2AR-WT; conditions: CTG at 96h
Procedure: as §1

[6] = test system: CRPC cell lines (LnCaP, C4-2, C4-2AR-WT, C4-2AR-F876L, DU-145); experiment: CRPC cell proliferation assay, summary over the cell lines
Procedure: Castrate-Resistant Prostate Cancer (CRPC) Cell Proliferation Assay • Cells were seeded into 96-well plates at 2,000-10,000 cells/well in 100 uL medium. Four AR(+) cell lines (LnCaP, C4-2 (parental), C4-2AR-WT and C4-2AR—F876L) and one AR(−) cell line (DU-145) were studied. Compound treated cells were analyzed for cell density at 96h, using CellTiter-Glo® (CTG) reagent (Promega). […] Example 10 and IBET-151 BET had submicromolar IC50 values in the AR(+) cell lines. The inhibitors maintained potency in C4-2 cells engineered to express wild type (WT) AR receptor (C4-2-AR-WT), as well as cells engineered to express the F876L mutation (C4-2-AR-F876L) that confers resistance to androgen receptor (AR) antagonists.

[7] = test system: MM1.S cells; experiment: MM1.S cell proliferation assay (CellTiter-Glo); conditions: for IC50: MM1.S, CTG at 96h; for inhibition of proliferation of MM1.S cells: dose dependent manner, FIG. 1.A
Procedure: (§2) MM1.S (dexamethasone sensitive) and OPM-2 cells were purchased from ATCC and maintained in RPMI-1640 medium with 10% fetal bovine serum at 37 degrees, 5% CO2. Cells were seeded at 10,000 cells/well in 100 uL medium. The following day compounds or control vehicle (DMSO) were added at indicated concentrations in 10 ul volume. Compound treated OPM-2 cells and MM1.S cell were analyzed for cell density at 72h and 96h, respectively, using CellTiter-Glo® (CTG) reagent (Promega). The CTG assay measures the amount of ATP present, which indicates the number of viable cells in culture.

[8] = test system: OPM-2 cells; experiment: OPM-2 cell proliferation assay (CellTiter-Glo); conditions: for IC50: OPM-2, CTG at 72h; for inhibition of proliferation of OPM-2 cells: dose dependent manner, FIG. 1.B
Procedure: as §2

[9] = test system: HCC2429 cells; experiment: NMC HCC2429 cell proliferation assay (CellTiter-Glo); conditions: HCC2429, CTG at 96h
Procedure: NMC HCC2429 Cell Proliferation Assay • HCC2429 cells were plated into a 96-well plate (10,000 cells/well). Compounds or control vehicle (DMSO) were added at indicated concentrations. Compound-treated HCC2429 cells were analyzed for cell density at 96h using CellTiter-Glo® (CTG) reagent (Promega).

[10] = test system: MYC, SOX2, involucrin and Keratin 14 expression in HCC2429 cells; experiment: Biomarker analysis in HCC2429 cells (RT-PCR, Western blot); conditions: for mRNA expression of involucrin: HCC2429, RT-PCR, 72 hours, 50 nM, 200 nM and 500 nM, dose dependent; for MYC protein level / SOX2 protein level: HCC2429, Western blot, 72 hrs, concentration-dependent
Procedure: HCC2429 cells were plated into a 6-well plate (250,000 cells/well). Cells were treated with compounds or control vehicle (DMSO) at the indicated concentrations for 72 hrs. Cells were collected, washed in PBS, and split for western blot and RNA analysis.

Row | SMILES | Max % Inh [1] | Max % Inh [2] | Max % Inh [3] | Max % Inh [4] | Max % Inh [5] | inhibition of proliferation of MM1.S cells [7] | inhibition of proliferation of OPM-2 cells [8] | mRNA expression of involucrin [10] | MYC protein level [10] | SOX2 protein level [10] | further results
1 | COc1cc2c(cc1-c1c(C)noc1C)ncc1[nH]c(=O)n([C@H](C)c3ccccn3)c12 [i-BET151, reference compound] | 90% | 90% | 78% | 74% | 92% |  |  |  |  |  | IC50 [1]: 0.47 µM; IC50 [2]: 0.49 µM; IC50 ([3]; Homo sapiens): 0.4 µM; IC50 ([4]; Homo sapiens): 1.13 µM; IC50 [5]: 0.43 µM; IC50 values in the AR(+) cell lines ([6]; AR(+) cell lines, CTG at 96h): submicromolar
2 | Cc1sc2c(c1C)C(c1ccc(Cl)cc1)=N[C@@H](CC(=O)OC(C)(C)C)c1nnc(C)n1-2 [JQ1(+)] |  |  |  |  |  | inhibited proliferation | inhibited proliferation | increased | down-regulated | down-regulated | IC50 [7]: 0.011 µM; IC50 [8]: 0.009 µM; IC50 [9]: 0.044 µM
3 | CNC(=O)c1ccc(N2C(=S)N(c3ccc(C#N)c(C(F)(F)F)c3)C(=O)C2(C)C)cc1F [MDV3100, reference compound] | 44% | 33% | 43% | 23% | 39% |  |  |  |  |  | activity on cell proliferation ([6]; short-term assay, compared with the BET inhibitors): weaker activity
4 | CCNC(=O)C[C@@H]1N=C(c2ccc(Cl)cc2)c2cc(OC)ccc2-n2c(C)nnc21 [IBET-762] |  |  |  |  |  | inhibited proliferation | inhibited proliferation | increased | down-regulated | down-regulated | IC50 ([7]; Homo sapiens): 0.012 µM; IC50 ([8]; Homo sapiens): 0.03 µM; IC50 ([9]; Homo sapiens): 0.085 µM
